{"source": "patent US8367716B2", "about": "(priority 2003, dated 2013)", "key": {"S. aureus DK825": {"system": "S. aureus DK825", "assay": "Effect on 24 h pre-formed biofilms", "format": "cell-based, Staphylococcus aureus", "details": "200 μM added to 24 h pre-formed biofilm, further 24 h", "protocol": "Effect of c-di-GMP on S. aureus pre-formed biofilms. S. aureus DK825 was subcultured from glycerol stocks onto blood agar plate and incubated at 37° C. statically. A single colony was inoculated into 5 ml TSB broth (containing 0.25% glucose) and incubated at 37° C. overnight with shaking at 250 rpm until the culture reached OD660˜3.0. Following incubation the culture was diluted to 1:250 with fresh TSB broth and a 200 μl of the diluted culture was transferred into each well of microtitre plate and the plate containing wells with S. aureus cultures was incubated statically at 37° C. for 24 h. After 24 h, an appropriate volume of c-di-GMP was added to give a final concentration of 200 μM and represented the “treated” sample. As an “untreated” control, an identical volume of 0.9% NaCl was added to independent wells. The plates were then incubated statically at 37° C. for an additional 24 h. Following incubation the culture was discarded and microtitre plate was washed twice with 1X PBS. An equal volume (260 μl) of 1X PBS was added to each well for washing. The plates were then kept for drying on paper towel ˜30 min. A 260 μl of 0.1% crystal violet was added to each well to stain the cells in the biofilm and the plates were incubated at room temperature for 30 min. […] To quantitatively assay the amount of biofilm, the OD570 was measured by a spectrophotometer (SpectraMAX 250, Molecular Devices). […]"}, "HeLa cells": {"system": "HeLa cells", "assay": "HeLa cell toxicity (cell morphology)", "format": "cell-based, human", "protocol": "Safety and toxicity assays. For HeLa cell toxicity studies, various concentrations (0-, 25-, 50-, 100-, 200- and 400 μM) of c-di-GMP were tested in separate wells of chamber slides containing HeLa cells prepared as described above in complete media (in the absence of bacteria). HeLa cell morphology was examined microscopically after 12-, 24- and 48 h incubation. The potential lethality of c-di-GMP administered to mice was also examined. In these studies, adult female CD-1 mice and 5 day old infant mice were inoculated orally with 50 μL of 200 μM c-di-GMP and examined 24 h after c-di-GMP treatment."}}}
{"smiles": "Nc1nc2c(ncn2C2OC3COP(=O)(O)OC4C(COP(=O)(O)OC3C2O)OC(n2cnc3c(=O)[nH]c(N)nc32)C4O)c(=O)[nH]1", "note": "(centres unmarked) [c-di-GMP, 3′,5′-cyclic diguanylic acid]", "values": [{"measurement": "reduction of further biofilm development", "setting": "S. aureus DK825", "result": "~75", "unit": "%"}, {"measurement": "concentrations relatively noncytotoxic to HeLa cells", "setting": "HeLa cells", "result": "< 400", "unit": "µM"}, {"measurement": "effect on HeLa cell morphology", "setting": "HeLa cells; 0-, 25-, 50-, 100-, 200- and 400 μM, 12-, 24- and 48 h", "result": "no obvious visible effect"}, {"measurement": "changes in HeLa cell morphology", "setting": "HeLa cells; 400 μM, 48 h exposure", "result": "morphological changes"}, {"measurement": "changes in HeLa cell morphology", "setting": "HeLa cells; up to 400 μM, 24 h exposure", "result": "did not cause any obvious changes in cell morphology"}]}
